Test systems include SR; MDA-MB-435; IGROV-1; Malme-3M; U-251; KM12; 786-0; UACC-257; CAKI-1; SNB-19; TK-10; LOX IMVI; SF-295; SN12C; COLO 205; A498; NCI-H522; Hs-578T; OVCAR-8; SF-539.
Assay in all cases: NCI anticancer screen, dose series, 48 h

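Grown in 96-well plates, cells were treated for 48 hours with each compound at five concentrations. Insufficient inhibition: endpoint recorded as highest concentration tested. At the GI50, growth is halved.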 Calls of active or inactive are those of the source. Rule as the data show it: active = GI50 up to about 1.1 µM and inactive = higher.

As to `COc1ccc(-n2c(C)nc3ccc(NC4OC(COC(C)=O)C(OC(C)=O)C(OC(C)=O)C4OC(C)=O)cc3c2=O)cc1` (stereo not drawn), the GI50 with SR is 73.3 µM (inactive); in the experiment with MDA-MB-435 it was > 100 µM (inactive); in the experiment with IGROV-1, > 100 µM (inactive); in the experiment on Malme-3M it was 69.3 µM (inactive); in the experiment with U-251 it was > 100 µM (inactive); with KM12 it was > 100 µM (inactive). Moreover, the GI50 in the experiment with 786-0 is 24.8 µM (inactive); in the experiment on UACC-257 it was > 100 µM (inactive); in the experiment with CAKI-1 it was 19.7 µM (inactive); with SNB-19, > 100 µM (inactive); in the experiment with TK-10, 55.1 µM (inactive); in the experiment on LOX IMVI, 28.5 µM (inactive). The GI50 with SF-295 was > 100 µM (inactive); in the experiment with SN12C it was 32 µM (inactive); with COLO 205, 18.6 µM (inactive); with A498, > 100 µM (inactive); in the experiment with NCI-H522, 21.8 µM (inactive); with Hs-578T, 49.8 µM (inactive). The GI50 in the experiment with OVCAR-8 was 32.9 µM (inactive).
As for `O=C(CCCN1CCC2(CC1)CC(=O)N(N1CCCCCC1)C2=O)c1ccc(F)cc1`, the GI50 is 29.2 µM (inactive) in the experiment with SR; > 100 µM (inactive) in the experiment with MDA-MB-435; > 100 µM (inactive) in the experiment on IGROV-1; 52.8 µM (inactive) with Malme-3M; > 100 µM (inactive) in the experiment on U-251; 20.8 µM (inactive) in the experiment on 786-0. Also, the GI50 in the experiment on UACC-257 was 26.7 µM (inactive); in the experiment on CAKI-1, 81.5 µM (inactive); with TK-10 it was > 100 µM (inactive); with LOX IMVI it was 33.1 µM (inactive); with SF-295, 27.6 µM (inactive); in the experiment on SN12C, > 100 µM (inactive). Besides, the GI50 with COLO 205 was > 100 µM (inactive); in the experiment with A498 it was 62.7 µM (inactive); with NCI-H522, 52.7 µM (inactive); in the experiment with Hs-578T, 35.7 µM (inactive); in the experiment on SF-539 it was > 100 µM (inactive); with OVCAR-8 it was 18.5 µM (inactive).
Take `c1ccc2c(c1)OC(N1CCCC1)c1cnc(N3CCOCC3)nc1-2` (stereo not drawn): the GI50 in the experiment with SR is 38.5 µM (inactive); in the experiment with MDA-MB-435, 67 µM (inactive); in the experiment on Malme-3M, 21.9 µM (inactive); in the experiment with U-251 it was > 100 µM (inactive); with KM12, > 100 µM (inactive); in the experiment on 786-0, 59.8 µM (inactive). The GI50 with UACC-257 is 25.2 µM (inactive); with CAKI-1, 27.8 µM (inactive); in the experiment with SNB-19 it was 53 µM (inactive); in the experiment with TK-10, 29.9 µM (inactive); in the experiment with LOX IMVI, 54.3 µM (inactive); in the experiment on SF-295, 30.4 µM (inactive). Also, the GI50 is 32 µM (inactive) in the experiment on SN12C; 51.2 µM (inactive) in the experiment on COLO 205; 18.7 µM (inactive) in the experiment with A498; 51.1 µM (inactive) with Hs-578T; > 100 µM (inactive) with SF-539; > 100 µM (inactive) in the experiment on OVCAR-8.
For `Cc1c(/N=N/c2ccccc2)c(C)n(C2OC(CO)C(O)C(O)C2O)c(=S)c1C#N` (stereo not drawn), the GI50 in the experiment on SR was 21.4 µM (inactive); in the experiment on MDA-MB-435, 13.1 µM (inactive); with IGROV-1, 37.7 µM (inactive); with Malme-3M, 32.6 µM (inactive); with U-251 it was 23.2 µM (inactive); in the experiment with KM12, 33.5 µM (inactive). Also, the GI50 with 786-0 was 31.6 µM (inactive); with UACC-257, 33.2 µM (inactive); in the experiment on CAKI-1, 40.2 µM (inactive); in the experiment on SNB-19, 34.8 µM (inactive); in the experiment with TK-10, 27 µM (inactive); with LOX IMVI, 22.6 µM (inactive). The GI50 with SF-295 is 34.5 µM (inactive); with SN12C, 20.7 µM (inactive); in the experiment on COLO 205, 42 µM (inactive); with A498, 34.9 µM (inactive); in the experiment on Hs-578T, 1 µM (active); in the experiment on SF-539 it was 24.1 µM (inactive).
In the case of `Cc1ccc(C)c2c1NC(=O)/C2=N\Nc1ccccc1[N+](=O)[O-]`, the GI50 with SR was 1.61 µM (inactive); in the experiment on MDA-MB-435 it was > 100 µM (inactive); in the experiment on IGROV-1, 10.7 µM (inactive); in the experiment on U-251, 85.5 µM (inactive); in the experiment with KM12, > 100 µM (inactive); in the experiment with 786-0, 61.5 µM (inactive). Also, the GI50 with UACC-257, in the experiment on CAKI-1, in the experiment on SNB-19, in the experiment on TK-10, in the experiment with LOX IMVI and in the experiment with SF-295 was > 100 µM (inactive) throughout. In addition, the GI50 is > 100 µM (inactive) with SN12C; > 100 µM (inactive) with COLO 205; > 100 µM (inactive) with A498; > 100 µM (inactive) in the experiment on NCI-H522; 35.7 µM (inactive) in the experiment on Hs-578T; 98.2 µM (inactive) with SF-539.
In the case of `CC(C)(C)c1cc(/C=C2/NC(=O)NC2=O)cc(C(C)(C)C)c1O`, the GI50 with SR was 12.8 µM (inactive); with MDA-MB-435, 17.3 µM (inactive); in the experiment on IGROV-1, 16 µM (inactive); with Malme-3M, 19.5 µM (inactive); in the experiment with U-251, 12.8 µM (inactive); with KM12, 13.2 µM (inactive). The GI50 in the experiment with 786-0 is 15.6 µM (inactive); in the experiment on UACC-257 it was 16 µM (inactive); in the experiment with CAKI-1, 16.8 µM (inactive); in the experiment on TK-10 it was 16.4 µM (inactive); in the experiment on LOX IMVI, 15.8 µM (inactive); in the experiment with SF-295, 14.8 µM (inactive). Further, the GI50 was 15.2 µM (inactive) in the experiment with SN12C; 14.4 µM (inactive) in the experiment with COLO 205; 14 µM (inactive) with A498; 12 µM (inactive) with NCI-H522; 15.2 µM (inactive) with Hs-578T; 17 µM (inactive) with SF-539. For the same compound, the GI50 with OVCAR-8 is 16.3 µM (inactive).
As to `O=C1Nc2c(Cl)cc(Cl)cc2/C1=N/NC(=O)c1ccccc1O`, the GI50 in the experiment with SR is 5.4 µM (inactive); with MDA-MB-435 it was 13.2 µM (inactive); with IGROV-1 it was 12.3 µM (inactive); in the experiment with Malme-3M, 13.6 µM (inactive); with U-251, 8.51 µM (inactive); in the experiment with KM12 it was 15.5 µM (inactive). Further, the GI50 with 786-0 was 12.8 µM (inactive); with UACC-257, 17.9 µM (inactive); with CAKI-1 it was 16.8 µM (inactive); with SNB-19 it was 14.4 µM (inactive); with TK-10 it was 15.2 µM (inactive); in the experiment with LOX IMVI, 12.9 µM (inactive). Also, the GI50 is 14.9 µM (inactive) in the experiment with SF-295; 16.7 µM (inactive) in the experiment with SN12C; 22.3 µM (inactive) in the experiment on COLO 205; 16.5 µM (inactive) in the experiment with A498; 14.8 µM (inactive) in the experiment with Hs-578T; 14.6 µM (inactive) in the experiment with SF-539. Also, the GI50 with OVCAR-8 is 12.3 µM (inactive).
Take `Cc1ccc2ccc(=O)oc2c1`: the GI50 in the experiment on SR, in the experiment with MDA-MB-435, in the experiment on IGROV-1, in the experiment on Malme-3M, with U-251 and in the experiment on KM12 was > 100 µM (inactive) throughout. Moreover, the GI50 in the experiment on 786-0, with UACC-257, in the experiment with CAKI-1, in the experiment on TK-10, in the experiment on LOX IMVI and in the experiment on SF-295 was > 100 µM (inactive) throughout. Moreover, the GI50 with SN12C, in the experiment with COLO 205, in the experiment with A498, with NCI-H522, in the experiment with Hs-578T and in the experiment on SF-539 was > 100 µM (inactive) in each case. In the experiment with OVCAR-8, the GI50 is > 100 µM (inactive).
In the case of `Clc1cccc(/C=c2\nc(-c3ccccc3)n3c2nc2ccccc23)c1`, the GI50 in the experiment with SR is > 100 µM (inactive); with MDA-MB-435, > 100 µM (inactive); in the experiment on IGROV-1, > 100 µM (inactive); with Malme-3M, > 100 µM (inactive); with U-251, 60.4 µM (inactive); in the experiment on KM12 it was > 100 µM (inactive). Besides, the GI50 was > 100 µM (inactive) in the experiment with 786-0; > 100 µM (inactive) in the experiment on UACC-257; > 100 µM (inactive) in the experiment with CAKI-1; > 100 µM (inactive) in the experiment with SNB-19; 87.1 µM (inactive) with TK-10; > 100 µM (inactive) in the experiment with LOX IMVI. Moreover, the GI50 was 73.3 µM (inactive) in the experiment on SF-295; > 100 µM (inactive) with SN12C; > 100 µM (inactive) in the experiment with COLO 205; > 100 µM (inactive) in the experiment with A498; 98.6 µM (inactive) in the experiment on Hs-578T; 34.4 µM (inactive) in the experiment with SF-539. For the same compound, the GI50 with OVCAR-8 was > 100 µM (inactive).
Consider `Oc1cc(O)c2c(c1)O[C@H](c1cc(O)c(O)c(O)c1)[C@H](O)C2` [EPIGALLOCATECHIN], for which the GI50 is 14.4 µM (inactive) in the experiment on SR; 6.9 µM (inactive) with MDA-MB-435; 20.4 µM (inactive) in the experiment with IGROV-1; > 100 µM (inactive) in the experiment with Malme-3M; 16.4 µM (inactive) with U-251; 18.2 µM (inactive) with 786-0. In addition, the GI50 is > 100 µM (inactive) in the experiment with UACC-257; 33.1 µM (inactive) with CAKI-1; > 100 µM (inactive) in the experiment with SNB-19; 27.9 µM (inactive) in the experiment on LOX IMVI; 30.5 µM (inactive) in the experiment with SF-295; 20.5 µM (inactive) with SN12C. The GI50 with COLO 205 is 18.2 µM (inactive); in the experiment with A498, > 100 µM (inactive); in the experiment with NCI-H522 it was 17.7 µM (inactive); in the experiment with Hs-578T, 52 µM (inactive); in the experiment on SF-539, 20.3 µM (inactive); in the experiment on OVCAR-8, 16.1 µM (inactive).
For the compound `N/C(=N\c1ccccc1Cl)c1ccccc1N`, the GI50 in the experiment on SR was > 100 µM (inactive); in the experiment with MDA-MB-435 it was > 100 µM (inactive); in the experiment with IGROV-1, 45.8 µM (inactive); in the experiment on Malme-3M, > 100 µM (inactive); with U-251, > 100 µM (inactive); in the experiment on KM12, > 100 µM (inactive). Besides, the GI50 with 786-0, in the experiment with UACC-257, with CAKI-1, in the experiment with SNB-19, with TK-10 and in the experiment with LOX IMVI was > 100 µM (inactive) in each case. The GI50 in the experiment on SF-295, in the experiment with COLO 205, in the experiment with A498, with NCI-H522, with Hs-578T and in the experiment on OVCAR-8 was > 100 µM (inactive) each time.
